Assay results: US4032635A, “Pharmaceutical method for the therapy of immune diseases” (Zaidan Hojin Biseibutsu Kagaku Kenkyu Kai, priority 1975, dated 1977)
Where two headings read alike, the source gives them in different places. Where a SMILES comes first, the peptide text is derived from it. [ ]: non-standard residue; d: D form. The star is where a group is joined. Sta = CC(C)C[C@H](N)[C@@H](O)CC(=O)O; Isovaleryl = CC(C)CC(=O)*

Key:
[1] = system: Delayed-Type Hypersensitivity (DTH) to sheep red blood cells (SRBC); assay: Suppression of delayed-type hypersensitivity (SRBC footpad swelling); assay type: in vivo, mouse; conditions: for inhibition in vivo at 1 mg: Erythrocyte, 1 mg./mouse i.p.; for suppression of DTH reaction: anti-inflammatory drugs and protease-inhibitors, 1 mg./mouse
Procedure: The compounds of Formula (I) show suppression of various delayed-type hypersensitivity. In reference to the method by Lagrange [J. Exp. Med. 139, 528 (1974)], 10^8 sheep red blood cells (SRBC) without adjuvant were subcutaneously injected into the mouse hind footpad to immunize the animal. Four days later the animals were challenged by subcutaneous injection of 10^8 SRBC into another footpad. DTH response was measured as the increase in the thickness of footpad 24 hours after the injection of SRBC.
Varying doses of Compound-1 were administered orally or intraperitoneally either at the time of immunization (day 0) or challenge (day 4).
In FIG. 1 the ordinate indicates the swelling (× 0.1 mm.) of mice footpads on day 5 and the abscissa indicates the dose of Compound-1 per mouse administered by the oral (right) and intraperitoneal (left) routes. Solid line curve indicates the relationship when Compound-1 was administered on day 0 and the dotted line curve indicates the relationship when given on day 4.
The compounds were administered intraperitoneally in a dose 1 mg./mouse at the time of immunization (day 0) or challenge (day 4). Table 1 includes the results of humoral antibody response described later.

[2] = system: primary antibody formation to sheep red blood cells (SRBC), spleen cells; assay: Suppression of primary antibody formation (plaque forming cells, Jerne's method); assay type: in vivo, mice (ddY-strain); conditions: for inhibition in vivo at 1 mg: Erythrocyte, ip, 96 h, 1 mg./mouse i.p., read-out: Suppression, Plaque Forming Cells (suppression rate of primary antibody formation)
Procedure: 10^8 sheep red blood cells (SRBC) were injected intravenously into ddY-strain mice to immunize the animals, when the compounds of Formula (I) were administered intraperitoneally.
Each compound was administered intraperitoneally in the dosage of 1 mg./mouse.

[3] = system: experimental allergic encephalomyelitis (EAE); assay: Suppression of experimental allergic encephalomyelitis (EAE); assay type: in vivo, guinea pigs; conditions: for recurrence of paralysis after discontinuation: after discontinuation of the drug
Text: By injecting basic protein (B.P.) the extract from central nervous tissue, together with Freund's complete adjuvant, a typical EAE symptom develops. Guinea pigs show drastic reduction of body weight and development of paralysis about ten days after injection with BP and they finally die within 17 days after the injection of BP.

[4] = system: contact allergy induced by dinitrochlorobenzene (DNCB); assay: Suppression of contact allergy induced by dinitrochlorobenzene (DNCB); assay type: in vivo, guinea pigs; design: key to Skin Lesion Score, Animal No. 1 / Skin Lesion Score, Animal No. 2 / Skin Lesion Score, Animal No. 3: +: slight erythema; ++: marked erythema and slight swelling; +++: marked induration and swelling; conditions: 100 mg./kg. i.p. at 0.5, 24 and 48 hours before challenge; for Skin Lesion Score, Animal No. 1 / Skin Lesion Score, Animal No. 2 / Skin Lesion Score, Animal No. 3: control None +++
Procedure: For example, approximately 0.1 ml. of a 10% solution of DNCB in acetone was administered percutaneously on the ear. Fourteen days later animals were skin tested on a shaved flank by topical spotting (about 0.05 ml.) of a 0.1% solution of DNCB in acetone. Skin lesions were evaluated and scored 24 hours later as follows:
Guinea pigs readily develop contact hypersensitivities of the delayed-type by simple topical application of DNCB.

[5] = system: systemic anaphylactic shock; assay: Suppression of systemic anaphylactic shock (egg albumin); assay type: in vivo, mice; conditions: for time of death after induction, Animal No. 1: control 16; for time of death after induction, Animal No. 2: control 25; for time of death after induction, Animal No. 3: control 27; for time of death after induction, Mouse No. 1: control 15
Procedure: The mice were immunized by a subcutaneous injection of a mixture of 0.1 ml. (100 mcg.) egg albumin and 0.1 ml. Freund's complete adjuvant, and used for experiment four months thereafter. In control mice sensitized in the above manner, the shock symptom emerged after induction by intravenous injection of 100 mcg. egg albumin and most of the animals died from shock within about 40 minutes.
Table 3A show the suppression effect with Compound -1 when given as a single dose (0.25 or 1.0 mg./mouse, i.p.) at the time of sensitization. […] In the animals receiving the test drug, the time until death after induction was somewhat delayed and most of the animals survived the shock.

[6] = system: passive cutaneous anaphylaxis (PCA); assay: Suppression of passive cutaneous anaphylaxis (PCA); assay type: in vivo, guinea pigs; conditions: dilution giving a 10 mm. diameter blue zone; for Max. Dilution of Antiserum, i.p.: i.p. 50 mg./kg.; for Max. Dilution of Antiserum, Oral: oral 100 mg./kg., control 1060
Procedure: The compounds of Formula (I) are active in suppressing passive cutaneous anaphylaxis (PCA) in guinea pigs. Guinea pigs received intradarmally serial dilutions of antiserum (0.1 ml.), which was obtained from guinea pigs immunized with a mixture of egg albumin and Freund's complete adjuvant. At the time of sensitization with antiserum, the compound of Formula (I) was administered either orally (100 mg./kg.) or intraperitoneally (50 mg./kg.).
Four hours later the animals were challenged by intravenous injection of a mixture of 5 mg. egg albumin and Evans blue dye. The reaction was measured 30 minutes later by the blue zone which emerged at the point of antiserum injection.

[7] = system: primary antibody formation in spleen cell culture; assay: Antibody formation in spleen cell culture in vitro (hemolytic plaque assay); assay type: cell-based, mice
Procedure: Additional experiment to evaluate the effect of Compound-1 on primary antibody formation was made by spleen cell culture in vitro. According to the method described by Mishell and Dutton [J. Exp. Med., 126, 423 (1967)], dissociated spleen cells prepared from normal mice spleens were cultured with SRBC as antigen and at initiation of cultures Compound-1 was added, and then four days later, antibody formation in cultures was determined by Jerne's hemolytic plaque assay.

[8] = Acute toxicity, intraperitoneal; conditions: mouse, in vivo, ip, mice, read-out: LD50 (approximate)
Procedure: Acute toxicological studies were carried out on mice by intraperitoneal administration of the compounds of Formula (I). The approximate LD50 values for representative compounds are given as follows: […]

rats = assay: One-month daily administration; assay type: in vivo; conditions: oral or i.p., daily 12.5, 50 or 200 mg./kg.
Procedure: Compound-1 and Compound-2 were given orally or intraperitoneally to rats in daily doses of 12.5, 50 or 200 mg./kg., respectively, for one month.

red blood cells = assay: Heat-induced hemolysis of red blood cells / cell membrane stabilization; assay type: cell-based; conditions: Compound-1 compared with mefenamic acid or indomethacin
[9] = system: nucleic acid and/or protein synthesis; conditions: cited from earlier work
[10] = system: humoral and cell-mediated immunities; conditions: cited from earlier work
[11] = system: carrageenin-induced edema; conditions: 1 mg./mouse; cited from earlier work
[12] = 96 h, at challenge (day 4), read-out: Suppression, Delayed-Type Hypersensitivity, Administered at Induction (suppression rate)
[13] = ip, 0 h, at immunization (day 0), read-out: Suppression, Delayed-Type Hypersensitivity, Administered at Immunization (suppression rate)
[14] = 10 mg. i.p. once daily, days 3 to 21 after antigen, five animals
[15] = 0.25 mg./mouse i.p. at the time of sensitization
[16] = 1 mg./mouse i.p. at 0.5 and 5 hours before challenge
[17] = 1.0 mg./mouse i.p. at the time of sensitization

## O=C(Nc1cc(Cl)c(O)c(Cl)c1)c1ccccc1O [Compound-1, 3',5'-Dichloro-2,4'-dihydroxybenzanilide]
[1]; [12]
  inhibition in vivo at 1 mg: > 75%
[1]; [13]
  inhibition in vivo at 1 mg: 0 to 25%
[1]; varying doses, oral or i.p., at challenge (day 4)
  DTH suppression, administered on day 4 (FIG. 1): DTH was suppressed in mice sensitized by footpad inoculation with SRBC
[1]; varying doses, oral or i.p., at sensitization (day 0)
  DTH suppression, given at sensitization (day 0) (FIG. 1): not active when given at the time of sensitization (day 0)
[2]; 1000, 250, 62.5 and 15.6 mcg./mouse i.p.
  primary antibody formation in spleen cells of treated mice (FIG. 3): apparently suppressed in proportion to increased amounts of Compound-1
[2]
  inhibition in vivo at 1 mg: > 75%
[3]; 10 mg. i.p. once daily, days 3 to 21, four of five animals
  time of paralysis after antigen injection: 13 to 16 days
[3]; [14]
  animals with paralysis to a certain degree and course of symptoms: four others showed paralysis to a certain degree at 13-16 days but the symptoms of EAE soon disappeared
  animals without sign of paralysis: one gave no sign of the development of paralysis
[3]
  recurrence of paralysis after discontinuation: no more paralytic symptoms recurred
[3]; listed as compound-1
  recurrence of paralysis after discontinuation: without recrudescence of paralysis after discontinuation of the drug
[3]; guinea pigs
  suppressive effect on EAE: potent suppressive effect on EAE
[4]
  inhibition of the response to DNCB: significant inhibition of the response to DNCB
  Skin Lesion Score, Animal No. 1: +
  Skin Lesion Score, Animal No. 2: +
  Skin Lesion Score, Animal No. 3: ++
[5]; [15]
  time of death after induction, Animal No. 1: 18 min
  time of death after induction, Animal No. 2: 21 min
  time of death after induction, Animal No. 3: 22 min
[5]; [16]
  time of death after induction, Mouse No. 1: 35 min
[5]; [17]
  time of death after induction, Animal No. 1: 22 min
  time of death after induction, Animal No. 2: 23 min
  time of death after induction, Animal No. 3: 30 min
[6]; control 1024
  Max. Dilution of Antiserum, i.p.: 64
[6]; control 1350
  Max. Dilution of Antiserum, i.p.: 315
[6]
  Max. Dilution of Antiserum, Oral: 548
[7]; in vitro
  cytotoxicity / anti-proliferative effect in vitro: not cytotoxic nor anti-proliferative in vitro
[7]; spleen cell culture in vitro
  number of nucleated cells in culture: no changes in the number of nucleated cells
  viable cell count in culture: no changes in the number of nucleated cells nor in the viable cell count
[7]; spleen cell culture in vitro, four days
  number of plaque forming cells in culture: significantly decreased
[8]
  LD50: 2400 mg/kg
rats
  symptoms or abnormality attributable to the drug: no particular symptoms or abnormality attributable to the drug dosage was noted
  weight gain: normal
Red blood cells
  suppression of heat-induced hemolysis of red blood cells: suppressed the heat-induced hemolysis of red blood cells to about the same extent as did mefenamic acid or indomethacin

## O=C(Nc1cc(Cl)cc(Cl)c1O)c1ccccc1O [Compound-2, 3',5'-Dichloro-2,2'-dihydroxybenzanilide]
[1]; [12]
  inhibition in vivo at 1 mg: > 75%
[1]; [13]
  inhibition in vivo at 1 mg: 0 to 25%
[2]
  inhibition in vivo at 1 mg: > 75%
[4]
  inhibition of the response to DNCB: significant inhibition of the response to DNCB
  Skin Lesion Score, Animal No. 1: +
  Skin Lesion Score, Animal No. 2: ++
  Skin Lesion Score, Animal No. 3: ++
[5]; [16]
  time of death after induction, Mouse No. 1: 10 min
[5]; 1 mg./mouse i.p. at 0.5 and 5 hours before challenge, control 18
  time of death after induction, Mouse No. 2: 35 min
[6]
  Max. Dilution of Antiserum, Oral: 736
[8]
  LD50: 2500 mg/kg
rats
  symptoms or abnormality attributable to the drug: no particular symptoms or abnormality attributable to the drug dosage was noted
  weight gain: normal

## Cn1cnc([N+](=O)[O-])c1Sc1ncnc2nc[nH]c12 [azathioprine]
[9]
  effect on nucleic acid and/or protein synthesis: disrupt nucleic acid and/or protein synthesis
[10]
  dose at which effective / cytotoxicity: effective in general only at near-lethal doses owing to their cytotoxicity
  inhibition of humoral and cell-mediated immunities: inhibit both humoral and cell-mediated immunities

## COc1ccc2c(c1)c(CC(=O)O)c(C)n2C(=O)c1ccc(Cl)cc1 [indomethacin]
[1]
  suppression of DTH reaction: little suppression of this DTH reaction
Red blood cells
  suppression of heat-induced hemolysis of red blood cells: about the same extent
[11]
  suppression of carrageenin-induced edema: strongly suppress carrageenin-induced edema

## Cc1cccc(Nc2ccccc2C(=O)O)c1C [mefenamic acid]
[1]
  suppression of DTH reaction: little suppression of this DTH reaction
Red blood cells
  suppression of heat-induced hemolysis of red blood cells: about the same extent
[11]
  suppression of carrageenin-induced edema: strongly suppress carrageenin-induced edema

## CC(C)CC(=O)N[C@H](C(=O)N[C@H](C(=O)N[C@@H](CC(C)C)[C@@H](O)CC(=O)N[C@@H](C)C(=O)N[C@@H](CC(C)C)[C@@H](O)CC(=O)O)C(C)C)C(C)C [pepstatin, reference compound] (Isovaleryl-VV[Sta]A[Sta]-OH)
[1]
  suppression of DTH reaction: little suppression of this DTH reaction
[11]
  suppression of carrageenin-induced edema: strongly suppress carrageenin-induced edema
